Patent US9133230B2, “Hydrazone derivatives having potent antitumor activity toward multi-drug resistant tumor cells” (THE UNITED STATES OF AMERICA AS REPRESENTED BY THE …, priority 2011, dated 2015)

What was measured:
Type in all cases: cell-based
[1] = tested on: HL60-VCR; assay: MTS cytotoxicity on MDR tumor cells, HL60-VCR; conditions: HL60/VCR, Vincristine (VCR) resistant, 72 hr incubation
[2] = tested on: human colon carcinoma HCT-15; assay: MTS cytotoxicity assay, HCT-15; conditions: Homo sapiens, HCT-15, 48 h incubation
How it was run: (§1)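 Log-phase human tumour cells plated at about 5000 cells/mL, left 24 h, then exposed to compound dilutions in triplicate for 48 h at 37 °C, 5% CO2. Viability read as MTS/PMS tetrazolium reduction after 2 h, absorbance at 490 nm.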

[3] = tested on: human colon adenocarcinoma Caco-2; assay: MTS cytotoxicity assay, Caco-2; conditions: Homo sapiens, Caco-2, 48 h incubation
How it was run: as §1

[4] = tested on: human myelogenous leukemia K562; assay: MTS cytotoxicity assay, K562; conditions: Homo sapiens, K562, 48 h incubation
How it was run: as §1

[5] = tested on: human colorectal carcinoma HT29; assay: Annexin-V FACS analysis of apoptosis; conditions: FIGS. 3 and 4, treated versus control cells
Protocol: This activation was through ERK signaling and not through JNK signaling, resulting in PARP cleavage after 16 h. […] Activation of NFkB (p50) was also observed following treatment with these compounds.

[6] = tested on: colon cancer cell lines; assay: NCI 60 human tumor cell line screen, colon; conditions: Homo sapiens, arithmetic mean of two to nine cancer cell lines, read-out: Inhibitory concentration GI50, colon
Text: (§2) Selected compounds were submitted for testing in the organ-specific panel of human tumor cell lines at the National Cancer Institute, Bethesda, Md. This screen utilized 60 human tumor cell lines, representing leukemia, melanoma, and cancers of the lung, colon, brain, ovary, kidney, prostate, and breast (Boyd, M. R., “Status of the NCl preclinical antitumor drug discovery screen”. In Principles and practice of oncology updates; De Vita, V. T., Jr. Hellman, S., Rosenberg, S. A., Eds.; Lippincott: Philadelphia, Pa., 1989; Vol. 3, pp 1-12).
(§3) The MG MID value is the average of the GI50 values for all the cell lines tested for drug concentrations in the range of 10^−4-10^−8 M (See website domain: dtp.nci.nih.gov/dtp).

[7] = tested on: breast cancer cell lines; assay: NCI 60 human tumor cell line screen, breast; conditions: Homo sapiens, arithmetic mean of two to nine cancer cell lines, read-out: Inhibitory concentration GI50, breast
Text: as §2, §3

[8] = tested on: leukemia cell lines; assay: NCI 60 human tumor cell line screen, leukemia; conditions: Homo sapiens, arithmetic mean of two to nine cancer cell lines, read-out: Inhibitory concentration GI50, leukemia
Text: as §2, §3

[9] = tested on: prostate cancer cell lines; assay: NCI 60 human tumor cell line screen, prostate; conditions: Homo sapiens, arithmetic mean of two to nine cancer cell lines, read-out: Inhibitory concentration GI50, prostrate
Text: as §2, §3

## C(=NNc1ncnc2[nH]cnc12)c1ccccn1 [I-18, 6-(2-(Pyridin-2-ylmethylene)hydrazinyl)-9H-purine]
[1]
  GI50: 700 nM
[2]
  GI50: 2000 nM
[3]
  GI50: 2200 nM
[4]
  GI50: 2300 nM
[5]
  Apoptosis (Annexin-V, FACS analysis): Apoptosis was also established
[6]
  GI50: 1370 nM
[7]
  GI50: 1150 nM
[8]
  GI50: 966 nM
[9]
  GI50: 598 nM
